Measurements: patent publication US8952024B2, “Herbicidal pyrimidone derivatives” (E I du Pont de Nemours and Company, priority 2009, dated 2015)
Where two headings read alike, the source gives them in different places.

How the values were obtained:
Test in all cases: Test B pre-/postemergence plant response
Type in all cases: in vivo
[1] = system: lambsquarters (Chenopodium album); details: for pest or weed control at 125 g/ha: 125 g ai/ha
How it was run: (§1)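 Ratings reflect visual comparison with untreated controls 13 to 15 days after application, from 0 (no effect) to 100 (complete control). Application was preemergence to seeded loam/sand soil or postemergence to 1- to 4-leaf plants, with compound in a non-phytotoxic, surfactant-containing solvent.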

[2] = system: large crabgrass (Digitaria sanguinalis); details: for pest or weed control at 31 g/ha: 31 g ai/ha; for pest or weed control at 125 g/ha: 125 g ai/ha
How it was run: as §1

[3] = system: Surinam grass (Brachiaria decumbens); details: for pest or weed control at 31 g/ha: 31 g ai/ha; for pest or weed control at 125 g/ha: 125 g ai/ha
How it was run: as §1

[4] = system: goosegrass (Eleusine indica); details: for pest or weed control at 31 g/ha: 31 g ai/ha; for pest or weed control at 125 g/ha: 125 g ai/ha
How it was run: as §1

corn (Zea mays) = details: for Corn plant response rating (crop injury, 0 = no effect, 100 = complete kill) at 31 g/ha: 31 g ai/ha; for Corn plant response rating (crop injury, 0 = no effect, 100 = complete kill) at 125 g/ha: 125 g ai/ha
How it was run: as §1

[5] = Preemergence, 250 g ai/ha, 0 to 100 scale
[6] = 62 g ai/ha, postemergence, 0 is no effect, 100 is complete control, 13 to 15 days

Compound `COCCCn1c(-c2ccccc2)ncc(C(=O)C2=C(O)CCCC2=O)c1=O` [Compound 81, 5-[(2-hydroxy-6-oxo-cyclohexen-1-yl)carbonyl]-3-(3-methoxypropyl)-2-phenyl-4(3H)-pyrimidinone] has a pest or weed control at 125 g/ha ([1]; Chenopodium album, post-emergence, Postemergence, visual rating after 13 to 15 days, scale 0 (no effect) to 100 (complete control)) of 100%, a pest or weed control at 250 g/ha ([1]; Chenopodium album, post-emergence, Postemergence, 250 g ai/ha, scale 0 to 100 (0 no effect, 100 complete control), read-out: Plant response rating, Lambsquarters) of 100% and a pest or weed control at 31 g/ha ([1]; Chenopodium album, pre-emergence, Preemergence, 31 g ai/ha, scale 0 to 100 (0 no effect, 100 complete control), read-out: Plant response rating, Lambsquarters) of 98%. The pest or weed control at 62 g/ha ([1]; Chenopodium album, pre-emergence, Preemergence, 62 g ai/ha, scale 0 to 100, 0 no effect, 100 complete control, read-out: Plant response rating, Lambsquarters) was 98%, the pest or weed control at 125 g/ha ([1]; Chenopodium album, pre-emergence, Preemergence, scale 0 to 100, 0 no effect, 100 complete control, read-out: Plant response rating, Lambsquarters) was 98% and the “Lambsquarters plant response rating” value [1, 5] was 98. For the same compound, the “Crabgrass, Large plant response rating (0 to 100 scale)” value [2, 6] was 95, the pest or weed control at 31 g/ha ([2]; Digitaria sanguinalis, post-emergence, postemergence, scale 0 to 100, 0 is no effect, 100 is complete control, read-out: Plant response rating, Crabgrass, Large) was 85% and the pest or weed control at 125 g/ha ([2]; Digitaria sanguinalis, post-emergence, Postemergence, visual rating after 13 to 15 days, scale 0 (no effect) to 100 (complete control)) was 95%. The pest or weed control at 250 g/ha ([2]; Digitaria sanguinalis, post-emergence, Postemergence, 250 g ai/ha, scale 0 to 100 (0 no effect, 100 complete control), read-out: Plant response rating, Crabgrass, Large) was 98%, the pest or weed control at 31 g/ha ([2]; Digitaria sanguinalis, pre-emergence, Preemergence, scale 0 to 100 (0 no effect, 100 complete control), read-out: Plant response rating, Crabgrass, Large) was 100% and the pest or weed control at 62 g/ha ([2]; Digitaria sanguinalis, pre-emergence, Preemergence, 62 g ai/ha, scale 0 to 100, 0 no effect, 100 complete control, read-out: Plant response rating, Crabgrass, Large) was 100%. The pest or weed control at 125 g/ha ([2]; Digitaria sanguinalis, pre-emergence, Preemergence, scale 0 to 100, 0 no effect, 100 complete control, read-out: Plant response rating, Crabgrass, Large) was 100%, the “Crabgrass, Large plant response rating” value [2, 5] was 100 and the “Surinam Grass plant response rating (0 to 100 scale)” value [3, 6] was 90. For the same compound, the “Surinam Grass plant response rating” value [3, 5] was 100, the pest or weed control at 31 g/ha ([3]; Urochloa decumbens, post-emergence, postemergence, scale 0 to 100, 0 is no effect, 100 is complete control, read-out: Plant response rating, Surinam Grass) was 75% and the pest or weed control at 125 g/ha ([3]; Urochloa decumbens, post-emergence, Postemergence, visual rating after 13 to 15 days, scale 0 (no effect) to 100 (complete control)) was 98%. It also gave a pest or weed control at 250 g/ha ([3]; Urochloa decumbens, post-emergence, Postemergence, 250 g ai/ha, scale 0 to 100 (0 no effect, 100 complete control), read-out: Plant response rating, Surinam Grass) of 100%, a pest or weed control at 31 g/ha ([3]; Urochloa decumbens, pre-emergence, Preemergence, scale 0 to 100 (0 no effect, 100 complete control), read-out: Plant response rating, Surinam Grass) of 98% and a pest or weed control at 62 g/ha ([3]; Urochloa decumbens, pre-emergence, Preemergence, 62 g ai/ha, scale 0 to 100 (0 no effect, 100 complete control), read-out: Plant response rating, Surinam Grass) of 100%. For the same compound, the pest or weed control at 125 g/ha ([3]; Urochloa decumbens, pre-emergence, Preemergence, scale 0 to 100, 0 no effect, 100 complete control, read-out: Plant response rating, Surinam Grass) was 100%, the “Goosegrass plant response rating (0 to 100 scale)” value [4, 6] was 70 and the pest or weed control at 31 g/ha ([4]; Eleusine indica, post-emergence, postemergence, scale 0 to 100, 0 is no effect, 100 is complete control, read-out: Plant response rating, Goosegrass) was 65%. It also gave a pest or weed control at 125 g/ha ([4]; Eleusine indica, post-emergence, Postemergence, visual rating after 13 to 15 days, scale 0 (no effect) to 100 (complete control)) of 70%, a pest or weed control at 250 g/ha ([4]; Eleusine indica, post-emergence, Postemergence, 250 g ai/ha, scale 0 to 100 (0 no effect, 100 complete control), read-out: Plant response rating, Goosegrass) of 80% and a pest or weed control at 31 g/ha ([4]; Eleusine indica, pre-emergence, Preemergence, scale 0 to 100 (0 no effect, 100 complete control), read-out: Plant response rating, Goosegrass) of 98%. For the same compound, the pest or weed control at 62 g/ha ([4]; Eleusine indica, pre-emergence, Preemergence, 62 g ai/ha, scale 0 to 100, 0 no effect, 100 complete control, read-out: Plant response rating, Goosegrass) was 98%, the pest or weed control at 125 g/ha ([4]; Eleusine indica, pre-emergence, Preemergence, scale 0 to 100, 0 no effect, 100 complete control, read-out: Plant response rating, Goosegrass) was 100% and the “Goosegrass plant response rating” value [4, 5] was 100. For the same compound, the “Corn plant response rating (0 to 100 scale)” value (corn (Zea mays); [6]) was 10, the “Corn plant response rating” value (corn (Zea mays); [5]) was 55 and the Corn plant response rating (crop injury, 0 = no effect, 100 = complete kill) at 31 g/ha (corn (Zea mays); Zea mays, post-emergence, postemergence, scale 0 to 100, 0 is no effect, 100 is complete control) was 5%. The Corn plant response rating (crop injury, 0 = no effect, 100 = complete kill) at 125 g/ha (corn (Zea mays); Zea mays, post-emergence, Postemergence, visual rating after 13 to 15 days, scale 0 (no effect) to 100 (complete control)) was 15%, the Corn plant response rating (crop injury, 0 = no effect, 100 = complete kill) at 250 g/ha (corn (Zea mays); Zea mays, post-emergence, Postemergence, 250 g ai/ha, scale 0 to 100 (0 no effect, 100 complete control)) was 65% and the Corn plant response rating (crop injury, 0 = no effect, 100 = complete kill) at 31 g/ha (corn (Zea mays); Zea mays, pre-emergence, Preemergence, scale 0 to 100 (0 no effect, 100 complete control)) was 40%. It also gave a Corn plant response rating (crop injury, 0 = no effect, 100 = complete kill) at 62 g/ha (corn (Zea mays); Zea mays, pre-emergence, Preemergence, 62 g ai/ha, scale 0 to 100, 0 no effect, 100 complete control) of 40% and a Corn plant response rating (crop injury, 0 = no effect, 100 = complete kill) at 125 g/ha (corn (Zea mays); Zea mays, pre-emergence, Preemergence, scale 0 to 100, 0 no effect, 100 complete control) of 50%.
